Laboratory results taken from ChEMBL document CHEMBL5441451, “ASAP - In vitro cytotoxicity” (2024).
Where “and” joins values, the source holds several entries; their conditions need not be identical. Identical values can stand only once.

Assays:
[1] = (§1) Functional metabolic assay to measure dose dependent changes in cell viability from drug treatment in HeLa-ACE2 cells. Hela-ACE2 cells are seeded prior to drug treatment, then incubated in MTT (3-[4,5-dimethylthiazol-2-yl]-2,5- diphenyltetrazolium bromide) labelling reagent and SDS. Absorbance is measured at 560 and 750 nm and analyzed by Gen5 software. The assay has been performed by Icahn School of Medicine at Mount Sinai.; assay type: toxicity, cell-based; settings: human
[2] = Functional metabolic assay to measure dose dependent changes in cell viability from drug treatment in Vero E6/TMPRSS2 cells (cotreated with P-gp inhibitor, Elacridar). Cells are treated with antiviral candidates that have been serially diluted. Cytotoxicity is reported via measuring absorbance and analysis of MTT/MTS assays in uninfected cells. The assay has been performed by Icahn School of Medicine at Mount Sinai.; assay type: toxicity, cell-based, VeroE6/TMPRSS2; settings: chlorocebus sabaeus
[3] = as §1, with “iPSC-Pneumocyte” for “HeLa-ACE2”, “The” for “Hela-ACE2”, “seeded” for “seeded prior to drug treatment,”, “labeling” for “labelling”; assay type: toxicity, cell-based; settings: human; for CC50: iPSC-Pneumocyte cells; for CC10: pneumocyte
[4] = system: Middle East respiratory syndrome-related coronavirus; assay: microbe, parasite or virus in culture; assay type: functional, Chlorocebus sabaeus; settings: Vero 76

Row | SMILES | CC10 ([1]; hela-ace2) | CC50 ([1]; hela-ace2) [µM] | CC50 ([2]; Vero E6/TMPRSS2 cells, with Elacridar (P-gp inhibitor), concentration not stated) [µM] | CC10 ([2]; veroe6/tmprss2) [µM] | CC50 [3] [µM] | CC10 [3] [µM] | CC50 ([1]; HeLa-ACE2 cells) [µM] | CC50 [4] [µM]
1 | CC(C)[C@@H](Nc1ncnc2[nH]c(-c3cnn(C)c3C#N)cc12)c1ccc2c(n1)OCCO2 | > 50 µM and > 20 µM | > 50 | > 5 | > 5 | 6.02 | 5.176 | – | –
2 | CNC(=O)c1c[nH]c2ncnc(N[C@H](c3ccc4c(c3)S(=O)(=O)CCC4)C(C)C)c12 | > 20 µM | – | – | – | > 50 | > 50 | > 20 | > 32
